The values that follow come from publication PMC3246456, “An Immunoassay for Dibutyl Phthalate Based on Direct Hapten Linkage to the Polystyrene Surface of Microtiter Plates” (PLoS ONE, 2011).

The test system of assay [1] is anti-DBP MAb. Nature of the assay: Hapten coated icELISA (DBAP directly linked to polystyrene). The note with it: for inhibition: at 10 mg/mL; for antibody recognition: specificity of MAb; for CR (cross-reactivity): CR (%) = IC50 DBP/IC50 analogue×100. The class given is binding, mouse. As to the method:
(§1) An icELISA was used to assess the sensitivity of the MAb to free DBP and the cross-reactivities of structurally related compounds to the antibody. For competition, 50 µL of standards or diluted samples in assay buffer were placed in the wells, and 50 µL of the anti-DBP MAb diluted with assay buffer was added. After incubated for 1.5 h at 25°C, the plate was washed. The following procedure was followed as described for the inELISA. […] Standards and samples were run in triplicate wells, and the mean absorbance values were processed. Standard curves were obtained by plotting absorbance against the logarithm of analyte concentration and fitted with a logistic four-parameter equation y = (A−D)/[1+(x/C)^B]+D, where A is the absorbance value with no analyte present, B is the slope near the midpoint inhibition concentration, C is the concentration of analyte giving 50% inhibition (IC50), and D is the minimum absorbance value at infinite concentration of the analyte, [21]. Dynamic range was established between the concentrations producing 20% and 80% inhibition (IC20–IC80 or 80%–20% of the maximum response). Limit of detection (LOD) was determined as the concentration corresponding to 10% inhibitory concentration (IC10 or 90% of the maximum response) [22]–[24].
Polystyrene surface was first carboxylated by permanganate oxidation. Microwells were filled with a solution of 5% KMnO4 in 0.6 mol/L H2SO4 (150 µL/well) for 60 min at 60°C. The plates were washed with 6 mol/L HCl (3×5 min, 200 µL/well) to remove the brown manganese oxide and rinsed three times with distilled water giving polystyrene-COOH microwells [25]. Then 150 µL of EDC and hapten DBAP in 0.1 mol/L MES buffer (pH 5.0) were placed in the wells and incubated overnight under shaking (Fig. 2). The subsequent procedures were the same as conjugate coated inELISA or icELISA under optimal condition. The essential steps in direct attachment of hapten DBAP to polystyrene surface such as concentrations of EDC and conjugation temperatures were determined by the amount of antibody on the modified polystyrene surface measured by inELISA with coating concentration of 2 µg/mL DBAP and MAb dilution of 1∶2000. The optimal coating concentration of DBAP and dilution of MAb were determined by checkerboard titration.
To determine the specificity of MAb produced, the ability of the MAb to recognize several structurally related compounds (analogues) was tested by performing hapten coated icELISA and determining their respective IC50 values. The cross-reactivity (CR) values were calculated according to the following equation CR (%) = IC50 DBP/IC50 analogue×100 [23], [26].

The subject of assay [2] is MAb. In words: Binding of MAb to hapten linked on polystyrene surface. Details: species or system mouse. The note with it: carboxylated hapten linked to polystyrene surface; absorbance at 492 nm too low. An excerpt: Although methods had already been reported for linking hapten to polystyrene surface, [11], it was not applicable to the hapten coated ELISA for DBP because the MAb produced hardly bound to the carboxylated hapten DBCP on polystyrene (The absorbance value at 492 nm was too low.). Thus it was needed to immobilize the aminated hapten DBAP to the surface of polystyrene. Holthues et al had linked an aminated hapten ABA–atrazine to a glutaraldehyde polymer network directly bound to polystyrene surface and developed very sensitive ELISA to detect terbutryn. However, it was a failure to establish hapten coated ELISA for DBP based on covalently linking DBAP to a glutaraldehyde polymer network on polystyrene surface. […] The hapten coated format presented is proposed as generally applicable, because the carboxyl on modified microtiter plate surface enables stable immobilization of aminated or hydroxylated hapten through EDC.

The subject of assay [3] is antibodies in hybridoma culture supernatants. In words: Hybridoma screening by icELISA with 1 µg/mL DBAP-BSA. The class given is binding, mouse. As to conditions: three competitive clones of 352 wells; coated antigen 1 µg/mL DBAP-BSA. As to the method:
SP 2/0 murine myeloma cells were cultured in DMEM supplemented with 15% fetal bovine serum and 1% penicillin–streptomycin. Cell fusion and hybridoma culture procedures were carried out essentially as described by James. Mice splenocytes were mixed with SP 2/0 cells at the ratio of 5∶1 and centrifuged at 450 g for 5 min. One milliliters of polyethylene glycol solution at 37°C was dropped to the cell pellet over 1 min. The cell pellet was rotated for further 1 min, then 1 mL of DMEM added over 1 min, 2 mL of DMEM over 2 min. Finally, 12 mL was added over 2 min. After centrifugation at 450 g for 5 min, the cells were pelleted again, resuspended in HAT medium (DMEM containing 15% fetal bovine serum, 1% penicillin–streptomycin and 2% HAT media supplement) and plated into 96-well plates in which normal mouse peritoneal exudate cells (as feeder cells) had already been cultured 1 day before fusion. The colonies were fed every fifth day with freshly prepared HAT medium. […] The ratio of both absorbances was used as the criterion for selecting the best antibody-secreting clones. […]
An icELISA was used to assess the sensitivity of the MAb to free DBP and the cross-reactivities of structurally related compounds to the antibody. […] Standards and samples were run in triplicate wells, and the mean absorbance values were processed. […]

Assay [4] has as its system polyclonal antibody. Details: method as in PMID 16947007. The note with it: cited from earlier work.
Assay [5] deals with anti-DBP MAb. Nature of the assay: Conjugate coated indirect competitive ELISA (icELISA), DBAP-BSA coated. The class given is binding, mouse. As to the method:
Checkerboard titration, in which purified MAb was titrated against varying amounts of the coating hapten-conjugate was used to measure the reactivity of antibodies and to select an appropriate coating concentrations and antibody dilutions for icELISA [19]. The checkerboard assays were performed with inELISA. Microtiter plates were coated with 100 µL/well of hapten-protein conjugates (0, 0.125, 0.25, 0.5, and 1 µg/mL) in 0.05 mol/L carbonate buffer (pH 9.6) and incubated overnight at 4°C. The plates were washed three times with PBST (0.01 mol/L PBS containing 0.05% Tween-20, pH 7.4, 200 µL/well) and were blocked with 3% (w/v) skim milk powder (SMP) in PBS (250 µL/well) for 1 h at 37°C. After another washing step, 100 µL/well of purified anti-DBP MAb (1∶1000, 1∶2000, 1∶4000, 1∶8000, 1∶16000, and 1∶32000) diluted in PBS containing 0.1% BSA was added. After incubation for 1.5 h at 25°C, the plates were washed. Subsequently, the plates were incubated for 1 h at 37°C with 10000-fold diluted HRP-anti-mIgG in PBS containing 0.1% BSA (100 µL/well). After another washing step, 100 µL/well of freshly prepared O-phenylenediamine (OPD) solution (0.4 mg/mL OPD and 0.012% H2O2 in 0.05 mol/L citrate-phosphate, pH 5.0) was added. The reaction was stopped with 2 mol/L sulfuric acid (50 µL/well) after an incubation of 15 min at room temperature keeping away from light. The absorbance was recorded at a primary wavelength of 492 nm with a reference wavelength of 630 nm.
as §1
The influence of several experimental parameters on assay characteristics was examined in order to improve the sensitivity of the immunoassay. Concentrations of coating antigen and dilutions of MAb were determined by checkerboard titration. Other different experimental parameters such as organic solvents, pH, ionic strength, and detergent in assay buffer, and blocking agents were studied sequentially in this order using the above described icELISA protocol. Each time an evaluated parameter was changed, the new value was used for the evaluation of the next condition. Criteria used to evaluate the assay performances were the absorbance of zero concentration of DBP (Amax) and IC50.
A general note: ELISA stands for enzyme-linked immunosorbent assay.

Setting [6] is: cross-reactivity study, hapten coated icELISA, mean ±SD of three replicates.
Where [7] appears, read: hapten coated icELISA, optimized conditions.
Setting [8] is: conjugate coated icELISA, optimized conditions.

For `CCCCCCCCOC(=O)c1ccccc1C(=O)OCCCCCCCC` [DOP, di(n-octyl) phthalate], in assay [1] (hapten coated icELISA), the inhibition came to 1.15% inhibition at 10 mg/mL and the antibody recognition entry is listed as “absence of recognition”.
The like results for `COC(=O)c1ccccc1C(=O)OC` [DMP, dimethyl phthalate] were, in that order, 7.98% inhibition at 10 mg/mL and “absence of recognition”.
With `CCCCOC(=O)c1ccc(NC(=O)CCC(=O)O)cc1C(=O)OCCCC` [DBCP], the “binding of MAb to hapten on polystyrene” value in assay [2] is “hardly bound”.
Regarding `CCOC(=O)c1ccccc1C(=O)OCC` [DEP, diethyl phthalate], in assay [1] (hapten coated icELISA), the inhibition is recorded as 5.08% inhibition at 10 mg/mL and the antibody recognition result is on record as “absence of recognition”.
As for `CCCCOC(=O)c1ccccc1C(=O)OCCCC` [DBP, Dibutyl phthalate], in assay [1] (hapten coated icELISA), the “CR (cross-reactivity)” value was 100%. Besides, the 50% inhibitory concentration (IC50) in assay [1] (setting [6]) is 0.0147 ± 0.0028 µg/mL; in assay [1] (hapten coated icELISA standard curve, optimized conditions (DBAP 1 µg/mL, MAb 1:1000)), 0.0146 µg/mL; in assay [3] it was below 5 µg/mL; in assay [5] (assay buffer with 0% DMF (DMF series) in PBS containing 0.1% BSA, mean ±SD, three replicates), 0.369 ± 0.0274 µg/mL; in assay [5] (assay buffer with 0% DMSO (DMSO series) in PBS containing 0.1% BSA, mean ±SD, three replicates) it was 0.392 ± 0.0702 µg/mL; in assay [5] (assay buffer with 0% acetonitrile (acetonitrile series) in PBS containing 0.1% BSA, mean ±SD, three replicates) it was 0.471 ± 0.0306 µg/mL. Moreover, the IC50 in assay [5] (assay buffer with 0% dioxane (dioxane series) in PBS containing 0.1% BSA, mean ±SD, three replicates) worked out at 0.797 ± 0.0198 µg/mL; in assay [5] (assay buffer with 0% methanol (methanol series) in PBS containing 0.1% BSA, mean ±SD, three replicates), 1.4 ± 0.0643 µg/mL; in assay [5] (assay buffer with 5% DMF in PBS containing 0.1% BSA, mean ±SD, three replicates), 0.303 ± 0.0302 µg/mL; in assay [5] (assay buffer with 5% DMSO in PBS containing 0.1% BSA, mean ±SD, three replicates), 0.373 ± 0.0318 µg/mL; in assay [5] (assay buffer with 5% acetonitrile in PBS containing 0.1% BSA, mean ±SD, three replicates), 0.444 ± 0.0118 µg/mL; in assay [5] (assay buffer with 5% dioxane in PBS containing 0.1% BSA, mean ±SD, three replicates), 1.679 ± 0.271 µg/mL. Moreover, the IC50 was determined as 0.637 ± 0.0671 µg/mL in assay [5] (assay buffer with 5% methanol in PBS containing 0.1% BSA, mean ±SD, three replicates); 0.223 ± 0.0118 µg/mL in assay [5] (assay buffer with 10% DMF in PBS containing 0.1% BSA, mean ±SD, three replicates); 0.52 ± 0.0661 µg/mL in assay [5] (assay buffer with 10% DMSO in PBS containing 0.1% BSA, mean ±SD, three replicates); 0.325 ± 0.0088 µg/mL in assay [5] (assay buffer with 10% acetonitrile in PBS containing 0.1% BSA, mean ±SD, three replicates); 2.509 ± 0.504 µg/mL in assay [5] (assay buffer with 10% dioxane in PBS containing 0.1% BSA, mean ±SD, three replicates); 0.624 ± 0.0145 µg/mL in assay [5] (assay buffer with 10% methanol in PBS containing 0.1% BSA, mean ±SD, three replicates). Moreover, the IC50 in assay [5] (assay buffer with 20% DMF in PBS containing 0.1% BSA, mean ±SD, three replicates) was 0.345 ± 0.0175 µg/mL; in assay [5] (assay buffer with 20% DMSO in PBS containing 0.1% BSA, mean ±SD, three replicates), 0.423 ± 0.053 µg/mL; in assay [5] (assay buffer with 20% acetonitrile in PBS containing 0.1% BSA, mean ±SD, three replicates) it was 0.428 ± 0.0112 µg/mL; in assay [5] (assay buffer with 20% dioxane in PBS containing 0.1% BSA, mean ±SD, three replicates) it was 2.191 ± 0.224 µg/mL; in assay [5] (assay buffer with 20% methanol in PBS containing 0.1% BSA, mean ±SD, three replicates) it was 0.889 ± 0.0186 µg/mL; in assay [5] (conjugate coated icELISA standard curve, optimized conditions (DBAP-BSA 0.25 µg/mL, MAb 1:8000)) it was 0.106 µg/mL. For the same compound, the figures for the “LOD (IC10)” value in assay [1] (setting [7]) and in assay [5] (setting [8]) were 0.000426 µg/mL and 0.0105 µg/mL, respectively. Also, the “dynamic range (IC20–IC80)” value in assay [1] (setting [7]) was 0.00174 to 0.123 µg/mL; in assay [5] (setting [8]) it was 0.0252 to 0.445 µg/mL. Further, the “limit of detection (LOD)” value in assay [4] (as stated by Zhang et al) is listed as 0.02 µg/L. For the same compound, the “concentration causing 50% of the maximal fluorescence quenching” value in assay [4] (maximum concentration used did not cause 50% quenching) is reported as above 1000 µg/L. The “IC50 (blocking agent optimization)” value in assay [5] (OVA as a blocking reagent (Fig. 4D)) came to 0.10813 ± 0.01952 µg/mL. Besides, the “IC50 (lowest, pH optimization)” value in assay [5] (assay buffer pH 6.8 (Fig. 4A)) was found to be 177.04±15.37 ng/mL.
Consider `CCCCC(CC)COC(=O)c1ccccc1C(=O)OCC(CC)CCCC` (stereo not drawn) [DEHP, di(2-ethylhexyl) phthalate], for which, in assay [1] (hapten coated icELISA), the inhibition was found to be 1.12% inhibition at 10 mg/mL and the antibody recognition entry is listed as “absence of recognition”.
For `CCCCOC(=O)c1ccccc1C(=O)OCc1ccccc1` [BBP, Butyl benzyl phthalate], the IC50 in assay [1] (setting [6]) came out at 0.0721 ± 0.0142 µg/mL.
Regarding `CCCCOC(=O)c1ccc(N)cc1C(=O)OCCCC` [DBAP, dibutyl 4-aminophthalate], the “CR (cross-reactivity)” value in assay [1] (hapten coated icELISA) came out at 27.8%. Besides, in assay [1] (setting [6]), the IC50 was 0.0529 ± 0.0124 µg/mL.

Broadly, the IC50 is the point on the concentration scale where inhibition reaches its midpoint.
